# Data taken from the OPERA property sets (Mansouri et al. 2018).
# Conditions: not given
Compound,boiling point [°C],melting point [°C],log10 vapour pressure (mmHg),ready biodegradability,log10 Henry constant (atm·m³/mol),log10 Koc (L/kg),log10 biodegradation half-life (days),log10 Koa
COC(=O)c1cccc(I)c1,277,54.5,–,–,–,–,–,–
O=C(c1ccccc1)c1ccc([N+](=O)[O-])cc1,–,138,–,–,–,–,–,–
[O-][n+]1onc2ccccc21,–,70,–,–,–,–,–,–
CC(C)=CCC[C@@H](C)[C@H]1CC[C@H]2[C@@H]3CC=C4C[C@@H](O)CC[C@]4(C)[C@H]3CC[C@]12C,–,122,–,–,–,–,–,–
CCCCOCCOCCOCCCC,256,-60,-1.58,–,–,–,–,–
FC(F)(Br)C(F)(F)C(F)(F)C(F)(F)C(F)(F)C(F)(F)Br,142,–,–,–,–,–,–,–
OC[C@H]1O[C@@H](n2cnc3cncnc32)[C@H](O)[C@@H]1O,–,181,–,–,–,–,–,–
CCCCCCCC/C=C\CCCCCCCC(=O)OCC(COC(=O)CCCCCCC/C=C\CCCCCCCC)OC(=O)CCCCCCC/C=C\CCCCCCCC,–,–,–,readily biodegradable,–,–,–,–
Cc1ccc2c(C)ccc(C(C)C)c2c1,294,–,–,–,–,–,–,–
C=O,-19.1,–,–,readily biodegradable,-6.47,–,–,–
O=Nc1ccc(O)c(N=O)c1O,–,168,–,–,–,–,–,–
CC1CO1 (configuration not stated),35,-112,2.73,readily biodegradable,–,–,–,–
C=CF,-72,-160,4.3,–,–,–,–,–
CC1CC1,0.7,-177,3.2,–,–,–,–,–
COC(=O)c1ccccc1C,215,–,–,–,–,–,–,–
C=C1CCC2CC1C2(C)C (configuration not stated),166,-61.2,0.467,–,–,–,–,–
COCC(O)COC,169,–,–,–,–,–,–,–
CCOC(=O)c1ccccc1Br,254,–,–,–,–,–,–,–
Cc1ccc(C(=O)O)c(C)c1,268,90,–,–,–,–,–,–
Cc1cccc(N(C)C(=S)Oc2ccc3ccccc3c2)c1,–,111,–,–,–,–,–,–
Nc1cc2ccccc2c2ccccc12,–,138,–,–,–,–,–,–
Cc1ccc(CC#N)cc1,242,18,–,–,–,–,–,–
CN(C)[C@@H]1C(O)=C(C(N)=O)C(=O)[C@@]2(O)C(O)=C3C(=O)c4c(O)ccc(Cl)c4[C@@](C)(O)[C@H]3C[C@@H]12,–,168,–,–,–,–,–,–
CCCCCCC=NO,195,57.5,–,–,–,–,–,–

Compound,boiling point [°C],melting point [°C],log10 vapour pressure (mmHg),ready biodegradability,log10 Henry constant (atm·m³/mol),log10 Koc (L/kg),log10 biodegradation half-life (days),log10 Koa
Nc1ccc(-c2ccc(N)cc2)cc1,401,120,–,–,–,3.46,–,–
CCOC(=O)c1c(Cl)c(Cl)c(Cl)c(Cl)c1C(=O)O,–,94.5,–,–,–,–,–,–
O=C(c1ccccc1)C(O)c1ccccc1 (configuration not stated),–,–,–,readily biodegradable,–,–,–,–
CCCCCC[C@H](C)I,210,–,0.136,–,–,–,–,–
CN(C)C(N)=O,–,184,–,–,–,–,–,–
O=C(O)CCCCCC(=O)O,342,106,-7.05,–,–,–,–,–
O=[N+]([O-])c1ccc(O)cc1C(F)(F)F,–,76,–,–,–,2.11,–,–
Fc1cc(F)cc(F)c1,75.5,-5.5,2.02,–,–,–,–,–
CCCCCCC(O)CCCCC (configuration not stated),225,30,–,–,–,–,–,–
O=C(NCO)c1cccnc1,–,142,–,–,–,–,–,–
CCCCCCCCCC,174,-29.7,0.155,readily biodegradable,–,–,0.954,–
C[C@]12CCC(=O)C=C1CC[C@@H]1[C@@H]2C(=O)C[C@@]2(C)[C@H]1CC[C@]2(O)C(=O)CO,–,222,–,–,–,–,–,–
Cc1cnccc1N,–,108,–,–,–,–,–,–
c1cc2c3c(cccc3c1)CC2,279,93.4,-2.67,not readily biodegradable,-3.74,3.59,1.59,6.31
Cc1ccc(C(=O)c2ccccc2C(=O)O)cc1,–,146,–,–,–,–,–,–
CCOC(N)=O,185,49,-0.582,not readily biodegradable,–,–,–,–
CCCCCCCCCCCCN,259,28.3,-2.09,–,–,–,–,–
N#CCc1ccccc1F,232,–,–,–,–,–,–,–
CC[C@@H](C(=O)[C@@H](C)[C@@H](O)[C@H](C)[C@@H]1O[C@@H]([C@@H](CC)C(=O)O)CC[C@@H]1C)[C@H]1O[C@]2(C=C[C@@H](O)[C@]3(CC[C@@](C)([C@H]4CC[C@](O)(CC)[C@H](C)O4)O3)O2)[C@H](C)C[C@@H]1C,–,113,–,–,–,–,–,–
C=C[Si](C=C)(C=C)C=C,130,–,–,–,–,–,–,–
Nc1ccncc1,273,158,–,not readily biodegradable,–,–,–,–
Nc1cccc(I)c1,–,33,–,–,–,–,–,–
Oc1ccc2c(O)cccc2c1,–,138,–,–,–,–,–,–
CC(=O)Oc1c(C(C)(C)C)cc([N+](=O)[O-])c(C)c1[N+](=O)[O-],–,86.5,–,–,–,–,–,–

Compound,boiling point [°C],melting point [°C],log10 vapour pressure (mmHg),ready biodegradability,log10 Henry constant (atm·m³/mol),log10 Koc (L/kg),log10 biodegradation half-life (days),log10 Koa
O=C1C(Cl)=C(Nc2ccccc2)C(=O)c2ccccc21,–,215,–,–,–,–,–,–
CCCCC/C=C\C/C=C\C/C=C\C/C=C\CCCC(=O)O,–,-49.5,–,–,–,–,–,–
C[C@]12CC[C@H]3[C@@H](CCC4=CC(=O)CC[C@@H]43)[C@@H]1CC[C@@H]2O,–,118,–,–,–,–,–,–
CCCCCN(CCCCC)CCCCC,242,–,–,–,–,–,–,–
CCCCC(=O)c1ccc(C)cc1,256,-2,–,–,–,–,–,–
CC(C)(C)c1ccncc1,196,-41,–,–,–,–,–,–
FC(Br)C(F)(F)F (configuration not stated),8.6,-80,–,–,-1.24,–,–,–
CCCCCCCC[C@H](O)[C@H](O)CCCCCCCC(=O)O,–,90,–,–,–,–,–,–
COC(=O)CCCCCCCCCCCC(=O)OC,332,36,–,–,–,–,–,–
CC(C)CCO,131,–,0.375,readily biodegradable,-4.85,–,–,4.52
CCCC(C)C(C)C(C)C (configuration not stated),161,–,–,–,–,–,–,–
O=NN1CCC[C@H]1c1cccnc1,–,47,–,–,–,–,–,–
Brc1ccc(-c2ccccc2)cc1,310,91.5,-2.63,readily biodegradable,–,–,–,–
CC1OC(C)OC(C)O1 (configuration not stated),124,12.6,1.04,not readily biodegradable,–,–,–,–
CCCCC(CC)CN (configuration not stated),169,-76,0.146,–,–,–,–,–
CC1(C)CC(NCCCCCCNC2CC(C)(C)NC(C)(C)C2)CC(C)(C)N1,–,64,–,–,–,–,–,–
OCN(CO)c1nc(N(CO)CO)nc(N(CO)CO)n1,–,137,–,–,–,–,–,–
Nc1c(Br)cc2c(c1Br)Cc1ccccc1-2,–,–,–,not readily biodegradable,–,–,–,–
C1CN1P1(N2CC2)=NP(N2CC2)(N2CC2)=NP(N2CC2)(N2CC2)=N1,–,148,–,–,–,–,–,–
CCCCCCCCCCCCCCCCOCC(O)CO (configuration not stated),–,64,–,–,–,–,–,–
COc1c(F)c(F)c(F)c(F)c1F,138,-37,–,–,–,–,–,–
COc1nc(C)nc(N)n1,–,260,–,–,–,–,–,–
CC(C)(C)CC(C)(C)Nc1ncnc(N(CCCCCCNC2CC(C)(C)NC(C)(C)C2)C2CC(C)(C)NC(C)(C)C2)n1,–,138,–,–,–,–,–,–
CN(C)c1ccc(CO)cc1,–,69,–,–,–,–,–,–

Compound,boiling point [°C],melting point [°C],log10 vapour pressure (mmHg),ready biodegradability,log10 Henry constant (atm·m³/mol),log10 Koc (L/kg),log10 biodegradation half-life (days),log10 Koa
Cc1ccccc1S(N)(=O)=O,–,–,–,not readily biodegradable,–,–,–,–
c1ccc2c(c1)nnn2C1CCCCC1,–,104,–,–,–,–,–,–
CC=Cc1ccc(OCC)c(O)c1,–,87,–,–,–,–,–,–
C#CC(=O)O,–,9,–,–,–,–,–,–
CC(C)Cc1ccc(CC(=O)O)cc1,–,86,–,–,–,–,–,–
COc1c(C)c2c(c(O)c1C/C=C(\C)CCC(=O)O)C(=O)OC2,–,141,–,–,–,–,–,–
CCCCc1ccccc1O,235,-20,-1.99,–,–,–,–,–
OCC(F)F,95.5,-28.2,–,–,–,–,–,–
Cc1cc(C)c(C(C)C)cc1C,221,21,–,–,–,–,–,–
CCOC(=O)c1cccc(Br)c1,261,–,–,–,–,–,–,–
Nc1c(Cl)cc(-c2cc(Cl)c(N)c(S(=O)(=O)O)c2)cc1S(=O)(=O)O,–,–,–,not readily biodegradable,–,–,–,–
CN1C[C@@H]2C[C@H](C1)c1cccc(=O)n1C2,–,137,–,–,–,–,–,–
O=C(N/N=C/c1ccccc1O)c1ccncc1,–,232,–,–,–,–,–,–
CC(C)(C)c1cc(C(C)(C)C)cc(C(C)(C)C)c1,–,–,–,not readily biodegradable,–,–,–,–
CCC(N)Cc1c[nH]c2ccccc12 (configuration not stated),–,97,–,–,–,–,–,–
CC(C)C(O)C(C)(C)C (configuration not stated),150,-13,–,–,–,–,–,–
CCCC(=O)C1=C(O)C(C)(C)C(O)=C(Cc2c(O)c(C)c(O)c(C(=O)CCC)c2O)C1=O,–,156,–,–,–,–,–,–
CCCCCCSCCCCCC,230,–,–,–,–,–,–,–
Cc1[nH]ncc1Br,–,76.5,–,–,–,–,–,–
CC(=O)Nc1ccc(OCC(O)CNC(C)C)cc1 (configuration not stated),–,135,–,–,–,–,–,–
CCS(=O)(=O)c1nnc(N(C)C(=O)NC)s1,–,156,–,–,–,–,–,–
c1ccc2nc3ccc4ccccc4c3cc2c1,–,–,–,–,–,4.39,–,–
C[C@@H]1O[C@@H](O)[C@H](O)[C@H](O)[C@H]1O,–,140,–,–,–,–,–,–
COC(=O)Nc1ccc(Cl)c(Cl)c1,–,–,–,–,–,2.74,–,–

# Same assay, conditions: fish
Compound,log10 BCF,log10 biotransformation half-life (days)
Clc1cc2oc3c(Cl)c(Cl)cc(Cl)c3c2c(Cl)c1Cl,3.2,–
c1cc2c3c(cccc3c1)CC2,2.88,–
Nc1ccncc1,0.66,–
CC1OC(C)OC(C)O1 (configuration not stated),0.48,–
Cc1ccccc1S(N)(=O)=O,0.41,-0.89
CC(C)(C)c1cc(C(C)(C)C)cc(C(C)(C)C)c1,4.36,2.7
c1ccc2nc3ccc4ccccc4c3cc2c1,2.02,–
